Assay results reported in paper PMC12221116, “Novel Quinazolinones Active against Multidrug‐Resistant Mycobacterium Tuberculosis: Synthesis, Antimicrobial Evaluation, and in Silico Exploration of Penicillin‐Binding Protein 1A as a Potential Target” (Chemmedchem, 2025).
≈ marks a conversion by molar mass, not a printed value. Like-named read-outs stand apart in the source and are kept apart here.

Tests used:
Assay in all cases: microbe, parasite or virus in culture
Assay type in all cases: cell-based, Mycobacterium tuberculosis
Mtb IZAK [1] = settings: for MIC: Mycobacterium tuberculosis, read-out: MIC Mtb IZAK
Mtb MATI [2] = settings: for MIC: Mycobacterium tuberculosis, read-out: MIC Mtb MATI
Mtb SORO [3] = settings: for MIC: Mycobacterium tuberculosis, read-out: MIC Mtb SORO
Mtb TIAS [4] = settings: for MIC: Mycobacterium tuberculosis, read-out: MIC Mtb TIAS
Mtb YAGY [5] = settings: for MIC: Mycobacterium tuberculosis, read-out: MIC Mtb YAGY
Mtb TURZ [6] = settings: for MIC: Mycobacterium tuberculosis, read-out: MIC Mtb TURZ
Mtb IZAK [7] = settings: for Susceptible/resistant Mtb IZAK: CLSI methodology; for MIC: Mycobacterium tuberculosis, read-out: MIC, susceptibility pattern Mtb IZAK
Mtb MATI [8] = settings: for Susceptible/resistant Mtb MATI: CLSI methodology; for MIC: Mycobacterium tuberculosis, read-out: MIC, susceptibility pattern Mtb MATI
Mtb SORO [9] = settings: for Susceptible/resistant Mtb SORO: CLSI methodology; for MIC: Mycobacterium tuberculosis, read-out: MIC, susceptibility pattern Mtb SORO
Mtb TIAS [10] = settings: for Susceptible/resistant Mtb TIAS: CLSI methodology; for MIC: Mycobacterium tuberculosis, read-out: MIC, susceptibility pattern Mtb TIAS
Mtb YAGY [11] = settings: for Susceptible/resistant Mtb YAGY: CLSI methodology; for MIC: Mycobacterium tuberculosis, read-out: MIC, susceptibility pattern Mtb YAGY
Mtb TURZ [12] = settings: for Susceptible/resistant Mtb TURZ: CLSI methodology; for MIC: Mycobacterium tuberculosis, read-out: MIC, susceptibility pattern Mtb TURZ
[13] = drug-resistant clinical isolate
[14] = mycobacteria growth indicator tube (MGIT), concentration 100 mg/l

SMILES	MIC (Mtb IZAK [1]) [µg/mL]	MIC (Mtb MATI [2]) [µg/mL]	MIC (Mtb SORO [3]) [µg/mL]	MIC (Mtb TIAS [4]) [µg/mL]	MIC (Mtb YAGY [5]) [µg/mL]	MIC (Mtb TURZ [6]) [µg/mL]	Susceptible/resistant Mtb IZAK (Mtb IZAK [7])	MIC (Mtb IZAK [7]) [µg/mL]	Susceptible/resistant Mtb MATI (Mtb MATI [8])	MIC (Mtb MATI [8]) [µg/mL]	Susceptible/resistant Mtb SORO (Mtb SORO [9])	MIC (Mtb SORO [9]) [µg/mL]	Susceptible/resistant Mtb TIAS (Mtb TIAS [10])	MIC (Mtb TIAS [10]) [µg/mL]	Susceptible/resistant Mtb YAGY (Mtb YAGY [11])	MIC (Mtb YAGY [11]) [µg/mL]	Susceptible/resistant Mtb TURZ (Mtb TURZ [12])	MIC (Mtb TURZ [12]) [µg/mL]	also measured
Cc1nc2ccccc2c(=O)n1Cc1cccc(Cl)c1 [Compound 6]	–	–	–	–	–	–	–	–	–	–	–	–	–	–	–	–	–	–	MIC Mtb IZAK (Mtb IZAK [1]; [13]): >100 µg/mL; MIC Mtb MATI (Mtb MATI [2]; [13]): 50 µg/mL (≈ 176 µM); MIC Mtb SORO (Mtb SORO [3]; [13]): 25 µg/mL (≈ 87.8 µM); MIC Mtb TIAS (Mtb TIAS [4]; [13]): 25 µg/mL (≈ 87.8 µM); MIC Mtb YAGY (Mtb YAGY [5]; [13]): 12.5 µg/mL (≈ 43.9 µM); MIC Mtb TURZ (Mtb TURZ [6]; [13]): 25 µg/mL (≈ 87.8 µM)
COc1ccc(Cn2c(C)nc3cc(Cl)ccc3c2=O)cc1 [Compound 17]	12.5 (≈ 39.7 µM)	12.5 (≈ 39.7 µM)	12.5 (≈ 39.7 µM)	12.5 (≈ 39.7 µM)	12.5 (≈ 39.7 µM)	12.5 (≈ 39.7 µM)	–	–	–	–	–	–	–	–	–	–	–	–	–
Cc1nc2cc(Cl)ccc2c(=O)n1Cc1ccc(F)cc1 [Compound 19]	> 50	> 50	> 50	12.5 (≈ 41.3 µM)	12.5 (≈ 41.3 µM)	12.5 (≈ 41.3 µM)	–	–	–	–	–	–	–	–	–	–	–	–	–
Cc1nc2cc(Cl)ccc2c(=O)n1Cc1cccc(Cl)c1 [Compound 21]	> 100	> 100	> 100	12.5 (≈ 39.2 µM)	12.5 (≈ 39.2 µM)	12.5 (≈ 39.2 µM)	–	–	–	–	–	–	–	–	–	–	–	–	–
Cc1nc2cc(Cl)ccc2c(=O)n1Cc1ccc(Cl)c(Cl)c1 [Compound 24]	> 100	> 100	100 (≈ 283 µM)	6.25 (≈ 17.7 µM)	6.25 (≈ 17.7 µM)	6.25 (≈ 17.7 µM)	–	–	–	–	–	–	–	–	–	–	–	–	–
Cc1nc2cc(Cl)ccc2c(=O)n1/N=C/c1ccc(O)c([N+](=O)[O-])c1 [Compound 25]	> 25	12.5 (≈ 34.8 µM)	12.5 (≈ 34.8 µM)	25 (≈ 69.7 µM)	6.25 (≈ 17.4 µM)	25 (≈ 69.7 µM)	–	–	–	–	–	–	–	–	–	–	–	–	–
NNC(=O)c1ccncc1 [INH, isoniazid, reference compound]	> 100	> 100	> 100	> 100	> 100	> 100	R	4 (≈ 29.2 µM)	R	> 8	R	4 (≈ 29.2 µM)	R	> 8	R	4 (≈ 29.2 µM)	R	> 8	–
CO[C@H]1/C=C/O[C@@]2(C)Oc3c(C)c(O)c4c(O)c(c(/C=N/N5CCN(C)CC5)c(O)c4c3C2=O)NC(=O)/C(C)=C\C=C\[C@H](C)[C@H](O)[C@@H](C)[C@@H](O)[C@@H](C)[C@H](OC(C)=O)[C@@H]1C [RIF, rifampicin]	–	–	–	–	–	–	R	> 8	R	> 8	S	0.125 (≈ 0.152 µM)	S	0.125 (≈ 0.152 µM)	R	8 (≈ 9.72 µM)	R	> 8	–
NCC[C@H](O)C(=O)N[C@@H]1C[C@H](N)[C@@H](O[C@H]2O[C@H](CN)[C@@H](O)[C@H](O)[C@H]2O)[C@H](O)[C@H]1O[C@H]1O[C@H](CO)[C@@H](O)[C@H](N)[C@H]1O [amikacin]	–	–	–	–	–	–	–	–	–	–	S	1 (≈ 1.71 µM)	S	1 (≈ 1.71 µM)	R	> 64	S	0.5 (≈ 0.854 µM)	–
CC(C)/N=c1\cc2n(-c3ccc(Cl)cc3)c3ccccc3nc-2cc1Nc1ccc(Cl)cc1 [clofazimine]	–	–	–	–	–	–	–	–	–	–	S	0.25 (≈ 0.528 µM)	–	–	–	–	–	–	–
CC[C@@H](CO)NCCN[C@@H](CC)CO [ethambutol]	–	–	–	–	–	–	S	0.5 (≈ 2.45 µM)	S	0.5 (≈ 2.45 µM)	R	2 (≈ 9.79 µM)	R	1 (≈ 4.89 µM)	R	4 (≈ 19.6 µM)	R	1 (≈ 4.89 µM)	–
COc1c(N2C[C@@H]3CCCN[C@@H]3C2)c(F)cc2c(=O)c(C(=O)O)cn(C3CC3)c12 [moxifloxacin]	–	–	–	–	–	–	–	–	–	–	S	0.25 (≈ 0.623 µM)	S	0.25 (≈ 0.623 µM)	S	0.25 (≈ 0.623 µM)	S	0.25 (≈ 0.623 µM)	–
NC(=O)c1cnccn1 [pyrazinamide]	–	–	–	–	–	–	R	> 16	R	> 128	–	–	–	–	–	–	–	–	Susceptible/resistant Mtb SORO (MGIT) (Mtb SORO [9]; [14]): S ^b); Susceptible/resistant Mtb TIAS (MGIT) (Mtb TIAS [10]; [14]): S ^b); Susceptible/resistant Mtb YAGY (MGIT) (Mtb YAGY [11]; [14]): R ^b); Susceptible/resistant Mtb TURZ (MGIT) (Mtb TURZ [12]; [14]): S ^b)
[H]/N=C(/N)N[C@H]1[C@H](O)[C@@H](O)[C@H](O[C@@H]2O[C@@H](C)[C@](O)(C=O)[C@H]2O[C@@H]2O[C@@H](CO)[C@H](O)[C@@H](O)[C@@H]2NC)[C@@H](N/C(N)=N\[H])[C@@H]1O [streptomycin]	–	–	–	–	–	–	R	4 (≈ 6.88 µM)	R	> 16	R	4 (≈ 6.88 µM)	R	4 (≈ 6.88 µM)	R	> 16	R	16 (≈ 27.5 µM)	–
